Test results: ChEMBL document CHEMBL1201862, “PubChem BioAssay data set” (2004)
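Results reflect a 48-hour exposure of cells in 96-well plates to compound at five concentrations. The concentration for 50% growth inhibition is given as GI50.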 Active and inactive are the calls of the source. Cut-off read from the data, not from the text of the source: active = GI50 up to about 1.1 µM and inactive = higher.

Experiments:
Assay in all cases: NCI anticancer screen, dose series, 48 h
[1] = tested on: UACC-257
[2] = tested on: HCT-15
[3] = tested on: Hs-578T
[4] = tested on: CAKI-1
[5] = tested on: NCI-H522
[6] = tested on: KM12
[7] = tested on: A498
[8] = tested on: T47D
[9] = tested on: SK-MEL-5
[10] = tested on: U-251
[11] = tested on: UO-31
[12] = tested on: SNB-19
[13] = tested on: A549
[14] = tested on: SK-OV-3
[15] = tested on: SF-295
[16] = tested on: SW-620
[17] = tested on: 786-0
[18] = tested on: MDA-MB-231
[19] = tested on: SF-539

Row | SMILES | GI50 [1] | GI50 [2] [µM] | GI50 [3] | GI50 [4] | GI50 [5] | GI50 [6] | GI50 [7] | GI50 [8] | GI50 [9] | GI50 [10] | GI50 [11] | GI50 [12] | GI50 [13] | GI50 [14] | GI50 [15] | GI50 [16] | GI50 [17] | GI50 [18] | GI50 [19]
1 | O=[N+]([O-])c1ccc(CSCc2ccc(Cl)cc2)cc1 | > 100 µM (inactive) | > 100 | > 100 µM (inactive) | > 100 µM (inactive) | 20 µM (inactive) | > 100 µM (inactive) | > 100 µM (inactive) | 74.3 µM (inactive) | > 100 µM (inactive) | > 100 µM (inactive) | > 100 µM (inactive) | > 100 µM (inactive) | > 100 µM (inactive) | > 100 µM (inactive) | > 100 µM (inactive) | > 100 µM (inactive) | > 100 µM (inactive) | > 100 µM (inactive) | > 100 µM (inactive)
2 | CC1CCC2C(C)C3C(CC4C5CC=C6CC(OC7OC(CO)C(O)C(OC8OC(CO)C(O)C(O)C8O)C7OC7OC(C)C(O)C(O)C7O)CCC6(C)C5CCC43C)N2C1 (stereo not drawn) | 16.1 µM (inactive) | 17.3 | 13.7 µM (inactive) | 11.3 µM (inactive) | 15.1 µM (inactive) | 14.8 µM (inactive) | 17.5 µM (inactive) | 19.3 µM (inactive) | 18.1 µM (inactive) | 16 µM (inactive) | 6.37 µM (inactive) | 10.5 µM (inactive) | 7.05 µM (inactive) | 16 µM (inactive) | 10.2 µM (inactive) | 15.6 µM (inactive) | 9.42 µM (inactive) | 13.6 µM (inactive) | 8.83 µM (inactive)
3 | CC(C)(C)OC(=O)c1ccc(NCc2cc(O)ccc2O)cc1 | 3.78 µM (inactive) | 1.32 | 1.69 µM (inactive) | 0.676 µM (active) | 0.24 µM (active) | 2.93 µM (inactive) | 9.68 µM (inactive) | 1.61 µM (inactive) | 3.65 µM (inactive) | 1.95 µM (inactive) | 1.22 µM (inactive) | 8.07 µM (inactive) | 7.4 µM (inactive) | 6.05 µM (inactive) | 7.41 µM (inactive) | 3.36 µM (inactive) | 2.32 µM (inactive) | 2.31 µM (inactive) | 1.22 µM (inactive)
4 | CCOC(=O)C#Cc1ccc(C#CC(=O)OCC)cc1 | 22.1 µM (inactive) | 1.81 | 3.15 µM (inactive) | 2.35 µM (inactive) | 2.9 µM (inactive) | 2.76 µM (inactive) | 14.2 µM (inactive) | > 21.2 µM (inactive) | 2.89 µM (inactive) | 2.51 µM (inactive) | 3.43 µM (inactive) | 5.02 µM (inactive) | 3.75 µM (inactive) | 9.84 µM (inactive) | 13.5 µM (inactive) | 3.15 µM (inactive) | 4.35 µM (inactive) | 5.11 µM (inactive) | 10.6 µM (inactive)
5 | CCOC(=O)C1=C(N2CCCC2)NC(=O)CC1=O | > 100 µM (inactive) | > 100 | > 100 µM (inactive) | > 100 µM (inactive) | > 100 µM (inactive) | > 100 µM (inactive) | > 100 µM (inactive) | 63 µM (inactive) | > 100 µM (inactive) | > 100 µM (inactive) | > 100 µM (inactive) | > 100 µM (inactive) | > 100 µM (inactive) | > 100 µM (inactive) | > 100 µM (inactive) | > 100 µM (inactive) | > 100 µM (inactive) | > 100 µM (inactive) | > 100 µM (inactive)
6 | COC1=C(C)C(=O)c2c(c(COC(N)=O)c3n2CC(OC(C)=O)C3OC(C)=O)C1=O (stereo not drawn) | 0.115 µM (active) | 0.0126 | 0.239 µM (active) | < 0.01 µM (active) | 0.0137 µM (active) | 0.228 µM (active) | 0.593 µM (active) | 0.757 µM (active) | 0.133 µM (active) | 0.0944 µM (active) | 0.15 µM (active) | 0.433 µM (active) | 0.136 µM (active) | 0.41 µM (active) | 0.0631 µM (active) | 0.0206 µM (active) | < 0.0116 µM (active) | 0.2 µM (active) | 0.0239 µM (active)
7 | COc1ccc(/C=C/C(=O)c2nc3ccccc3[nH]2)cc1 | 22 µM (inactive) | 10.9 | 21.3 µM (inactive) | 33.3 µM (inactive) | 13.6 µM (inactive) | 4.62 µM (inactive) | 26.4 µM (inactive) | 10.7 µM (inactive) | 17.9 µM (inactive) | 13.8 µM (inactive) | 15.7 µM (inactive) | 24.2 µM (inactive) | 24.9 µM (inactive) | 21.2 µM (inactive) | 21 µM (inactive) | 13.5 µM (inactive) | 11.6 µM (inactive) | 23.4 µM (inactive) | 8.32 µM (inactive)
